Laboratory results as given in patent US20110212899A1, “Corneal Neuritogenesis Promoter Containing Pacap and Its Derivative” (priority 2004, published 2011).
Where no end group is shown, it is not given here.

Experiments:
[1] = system: Human normal corneal epithelial cells; assay: Promoting effect on proliferation of cultured corneal epithelial cells (Test Example 8); format: cell-based; details: final concentration (10^−5 M), cultivation for 8 days; p<0.05
Protocol: Human normal corneal epithelial cells (Kurabo Industries Ltd., strain No. 4C0466) were used. Peptide 24 and PACAP27 were used as test substances. The test substance was dissolved in distilled water at a concentration 1000 times of the final concentration (10^−5 M), and the concentration was then adjusted to twice the final concentration with a serum-free proliferation medium for human corneal epithelial cells (EpiLife (−), Kurabo Industries Ltd.). After thawing freeze-preserved human normal corneal epithelial cells, the cells were seeded according to a conventional method and cultured for 7 days at 37° C. in 5% CO2. After the cultivation, the cells were harvested by a conventional method, and were suspended in EpiLife (−) at a concentration of 1.0×10^4 cells/mL. […] The number of the cells was counted based on the ability to reduce MTT (3-(4,5-dimethyl-2-thiazolyl)-2,5-diphenyl-2H-tetrazolium bromide) according to the protocol of Cell Counting Kit-8 (Dojindo Laboratories). […] The plate was incubated at 37° C. in 5% CO2 for 2 hours and then, the absorbance was measured at 450 nm using a microplate reader. Average values of absorbance in the control group and each test substance-addition group were calculated, and the values were compared between the control group and each test substance-addition group by a Dunnett's multiple comparison test (one-tailed). […]

[2] = system: cultured rabbit trigeminal nerve cells; assay: Promoting effect on neuritogenesis in cultured rabbit trigeminal nerve cells (2) (Test Example 4); format: cell-based; details: cultured for 48 hours, control group 20.7%
From the text: Japanese white rabbits (2 to 3 days old) purchased from Kitayama Labes Co., Lid. were used.
Rabbit trigeminal nerve cells were isolated according to a method reported by Chan et al. (Kwan Y. Chan and Richard H. Haschke, Exp. Eye Res. 41: 687-699, 1985). The rabbit was subjected to cardiac perfusion with physiological saline under ether anesthesia. A trigeminal ganglion was excised from the rabbit, and then dispersed in a nerve dispersion liquid (Sumitomo Bakelite Co., Ltd.) to prepare trigeminal nerve cells. The trigeminal nerve cells were cultured in Neurobasal medium (Invitrogen Corp) supplemented with B27 Supplement (Invitrogen Corp; final concentration: 2% v/v) and L-glutamine (Invitrogen Corp; final concentration: 1 mM) under 5% CO2 and 95% air at a humidity of 100% and a temperature of 37° C. […]
For evaluating neuritogenesis in the cultured rabbit trigeminal nerve cells, the length of the longest neurite and the major axis of the cell body in the stained cell images scanned into the computer were measured using image analysis software (Image-Pro Plus ver. 4.0, Planetron, Inc.) The cells in 3 wells for each group were measured. […] The proportion (%) of the neurite forming cells in the total cell number was calculated (Otori, Y., Wei, J. Y., Barnstable, C. J., Invest. Opthalmol. Vis. Sic., (1998)39, 972-981). […]

Question: “His-Ser-Asp-Ala-Ile-Phe-Thr-Asp-Ser-Tyr-Ser-Arg-Tyr-Arg-Arg-Gln-Leu-Ala-Val-Arg-Arg-Tyr-Leu-Ala-Ala-Val-Leu-Gly-Arg-Arg-NH2 (HSDAIFTDSYSRYRRQLAVRRYLAAVLGRR-NH2) [Peptide 24]” was tested. Which “cell number (MTT reduction ability) compared with control group” value [1] did it give?
Answer: increased

Question: And the “proportion (%) of the neurite forming cells in the total cell number” value ([2]; 0.1 μM)?
Answer: 42.5%

Question: And the “proportion (%) of the neurite forming cells in the total cell number” value ([2]; 1 μM)?
Answer: 51.4%
